In patent US20070166710A1, “Methods for inhibiting adipogenesis and for treating type 2 diabetes” (priority 2003, published 2007):

What was measured:
[1] = test system: Foxa-2 expression; test: Foxa-2 expression in primary adipocytes from lean wildtype C57B6 mice, semiquantitative RT-PCR; type: cell-based; details: insulin 100 nM, 60 hours
Experimental: (§1) Total RNA was extracted from cells and EBs using Trizol following manufacturer's instructions (Life Technologies, Inc.). […] The cDNAs provided templates for polymerase chain reactions (PCRs) using specific primers at annealing temperatures ranging between 60 and 65° C. in the presence of dNTPs, [α^-32P]dCTP, and Taq DNA polymerase. […] Primary adipocytes were isolated as described by Rodbell (1964) J. Biol. Chem. 239:375-380. […] (1995) J. Cell. Biochem. 58:435-463. The reaction was stopped by spinning through dinonyl […] oil and the radioactivity quantified by scintillation counting. […] (1995) Am. J. Physiol. 268:[…]-[…]. Fatty acid de novo synthesis was analyzed by saponification of total lipids as described by […] et al. (1978) J. […] Incorporation into lipid glycerol was calculated by subtracting fatty acid radioactive label from total lipid radioactive label. Primary adipocytes were isolated from lean wildtype C57B6 mice and cultured in MEM medium (control) or in the presence of insulin (100 nM; 24 hours and 60 hours, respectively) or rosiglitazone (50 μM), WY14,643 (100 μM), dexametason (1 μM), leptin (100 ng/ml), TNF-α (5 ng/ml), adiponectin (500 ng/ml) and glucagons (100 nM) for 60 hours. Gene expression was measured by semiquantitative RT-PCR. Steady state mRNA levels of Hprt were used as a control and indicate that each lane contains similar amounts of mRNA. Reactions were also assayed in the absence of reverse transcriptase, showing that mRNA was not contaminated with genomic DNA.

[2] = test system: Foxa-2 expression; test: Foxa-2 expression in primary adipocytes from ob/ob mice, semiquantitative RT-PCR; type: cell-based; details: insulin 100 μM as printed, prolonged culturing (24 and 60 hours)
Experimental: as §1, with “ob/ob” for “lean wildtype C57B6”, “μM;” for “nM;”, “dexamethason” for “dexametason”, “TNF-α,” for “TNF-α”, “rnRNA.” for “mRNA.”

[3] = test system: Foxa-2 expression; test: Foxa-2 gene expression in stromal vascular cells (preadipocytes) of lean and obese mice; type: cell-based; details: 100 nM insulin, 24 and 60 hours
Experimental: Gene expression was analyzed in a vasculo-stromal fraction (containing preadipocytes) of wildtype and ob/ob mice that were cultured in the absence (−) or presence of 100 nM insulin for 24 and 60 hours.
Stromal vascular cells from ob/ob mice are known to have increased cell replication in vitro and accumulate little triglycerides when cultured in differentiation medium containing insulin compared to lean control animals (Black et al (1995) J. Cell. Biochem 58:455-463). […] To test if the resistance to differentiation of obese preadipocytes may be mediated by Foxa-2, stromal vascular cells of lean and obese mice were isolated. cultured in the presence or absence of insulin, and gene expression of Foxa-2 and Pref-1 was measured. The mPNA levels were markedly higher in stromal vascular cells of ob/ob mice compared to lean littennates. […] However, Foxa-2 induction in ob/ob preadipocytes was profoundly higher compared to wildtype cells. Furthermore, Foxa-2 expression correlated with induction of Pref-1 gene expression.

[4] = test system: Pref-1, Hk-2, m2Pk, Glut-4 and Ucp-2/3; test: Expression of putative Foxa-2 target genes in primary adipocytes cultured with insulin; type: cell-based, mice; details: 100 nM insulin for 60 hours vs untreated adipocytes
[5] = test system: Pepck, G6pc and Igfbp-1; test: mRNA levels of Foxa-2 target genes in primary hepatocytes (RT-PCR); type: cell-based; details: insulin alone (50 nM, 6 hours)
Experimental: FIGS. 10a-d depict the effect of insulin on Foxa-2 activity. FIG. 10a is a bar graph depicting relative Foxa-2 activity in HepG2 cells transfected with an expression vector for Foxa-2 and […]-Luc (gray bars) or p6xCdx-TkLuc (black bars). Cells were treated with insulin alone or in the presence of Ly294002 or PD98059. FIG. 10b is a bar graph depicting relative Foxa-2 activity in HepG2 cells transfected with p6xCdx-TkLuc and treated with insulin alone or in the presence of Ly294002 or PD98059. […] FIG. 10d is a bar graph depicting relative Foxa-2 activity in HepG2 cells transfected with an expression vector for Foxa-1, Foxa-2, Akt or Akt[…] alone or in combination, using p6xCdx-TkLuc as reporter gene. In all experiments luciferase activity was normalized to β-Gal activity. […] Levels of mRNA were analyzed to determine whether inhibition of Foxa-2 target gene expression by insulin is controlled at a transcriptional or posttranscriptional level. The mRNA levels of Pepck, G6pc and Igfbp-1 in primary hepatocytes that were cultured either in the presence or absence of insulin, PI3-kinase or MAPKK1 inhibitors were measured.

[6] = test system: Foxa-2; test: Nuclear Foxa-2 in perfused livers, immunoblotting; type: in vivo, mice

insulin: Insulin was from Sigma; hormone used as stimulus
Foxa-2 expression [1]: strong induction
Foxa-2 expression [2]: strong increase
expression of Foxa-2 [3]: markedly increased
expression of Pref-1, Hk-2, m2Pk, Glut-4 and Ucp-2/3 [4]: upregulation
mRNA levels of Pepck, G6pc and Igfbp-1 [5]: significantly reduced
increase in nuclear Foxa-2 levels ([6]; in response to insulin stimulation, within 5-20 minutes): > 20 fold
change in nuclear Foxa-2 expression ([6]; livers exposed to low (fasting) vs high (postprandial) insulin levels): > 20 fold
nuclear Foxa-2 level ([6]; perfusion with 2.0 ng/ml insulin, 20 minutes): barely detectable levels
